*1 amine or outer side, *2 acyl side, *3 side chain or, on linkers, in order; H or OH if unused. Where a SMILES comes first, the peptide text is derived from it. Bridges are numbered along the chain shown (N, C = ends). Side-chain parts run from the residue outwards. [ ]: non-standard residue; d: D form. The star is where a group is joined. C20 diacid = O=C(O)CCCCCCCCCCCCCCCCCCC(=O)*; γGlu = O=C(O)[C@H](CCC(=O)[*:2])N[*:1]; AEEA = NCCOCCOCC(=O)O; Aib = CC(C)(N)C(=O)O
Tests used:
[1] = biological target: T1, human Glucagon receptor (GCGR) (Homo sapiens, UniProt P47871); test: cAMP accumulation assay, CHO-K1 cells expressing human GCGR; assay type: cell-based; details: mean pEC50, Table 10
T1 construct: A cDNA fragment encoding the full-length open reading frame of the human GCGR; expressed in transfected cells; host or cells: CHO-K1, pcDNA3.1+, Lipofectamine 2000
T1 sequence (P47871 26-477): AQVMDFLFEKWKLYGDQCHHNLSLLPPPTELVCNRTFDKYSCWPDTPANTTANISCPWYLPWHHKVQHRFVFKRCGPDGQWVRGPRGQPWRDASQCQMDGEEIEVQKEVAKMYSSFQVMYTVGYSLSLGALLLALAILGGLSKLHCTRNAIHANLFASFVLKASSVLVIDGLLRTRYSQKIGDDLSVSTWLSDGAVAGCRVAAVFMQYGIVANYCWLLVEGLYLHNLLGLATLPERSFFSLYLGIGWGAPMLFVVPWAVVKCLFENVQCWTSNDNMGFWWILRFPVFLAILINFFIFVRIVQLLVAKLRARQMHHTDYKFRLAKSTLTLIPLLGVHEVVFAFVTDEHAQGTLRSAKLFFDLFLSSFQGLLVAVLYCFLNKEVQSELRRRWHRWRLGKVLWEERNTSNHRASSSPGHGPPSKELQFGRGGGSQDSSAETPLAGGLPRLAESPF

[2] = biological target: T2, human GLP-1 receptor (GLP-1R) (Homo sapiens, UniProt P43220); test: cAMP accumulation assay, CHO-K1 cells stably expressing human GLP-1R; assay type: cell-based; details: cAMP accumulation, mean pEC50, Table 10
T2 construct: expressed in transfected cells
T2 sequence (P43220 24-463): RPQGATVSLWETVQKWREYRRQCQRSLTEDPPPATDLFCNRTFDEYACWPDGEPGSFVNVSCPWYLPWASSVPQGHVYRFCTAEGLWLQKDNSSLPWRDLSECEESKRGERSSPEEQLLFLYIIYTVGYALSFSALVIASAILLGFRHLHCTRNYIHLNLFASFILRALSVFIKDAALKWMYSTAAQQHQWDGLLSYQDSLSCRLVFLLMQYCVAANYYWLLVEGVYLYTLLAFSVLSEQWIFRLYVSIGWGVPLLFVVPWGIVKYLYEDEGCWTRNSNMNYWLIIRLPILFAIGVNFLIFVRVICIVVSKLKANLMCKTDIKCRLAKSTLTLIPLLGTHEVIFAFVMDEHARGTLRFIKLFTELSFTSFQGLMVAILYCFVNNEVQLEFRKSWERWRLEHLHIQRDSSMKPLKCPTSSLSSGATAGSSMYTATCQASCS

Structure (SMILES) | EC50 [1] | EC50 [2]
CC(C)C[C@H](NC(=O)[C@H](Cc1ccc(O)cc1)NC(=O)[C@H](CCCCN)NC(=O)[C@H](CO)NC(=O)[C@H](Cc1ccc(O)cc1)NC(=O)[C@H](CC(=O)O)NC(=O)[C@H](CO)NC(=O)[C@@H](NC(=O)[C@H](Cc1ccccc1)NC(=O)[C@@H](NC(=O)CNC(=O)[C@H](Cc1c[nH]cn1)NC(=O)[C@H](CO)NC(=O)[C@@H](N)Cc1ccc(O)cc1)[C@@H](C)O)[C@@H](C)O)C(=O)N[C@@H](CC(=O)O)C(=O)N[C@@H](CCCCNC(=O)CC[C@H](NC(=O)CC[C@H](NC(=O)COCCOCCNC(=O)CCCCCCCCCCCCCCCCCCC(=O)O)C(=O)O)C(=O)O)C(=O)N[C@@H](CCCCN)C(=O)N[C@@H](Cc1ccc(O)cc1)C(=O)N[C@@H](C)C(=O)N[C@@H](CCC(=O)O)C(=O)N[C@@H](CCC(=O)O)C(=O)N[C@@H](Cc1ccccc1)C(=O)N[C@H](C(=O)NC(C)(C)C(=O)N[C@@H](Cc1c[nH]c2ccccc12)C(=O)N[C@@H](CC(C)C)C(=O)N[C@@H](CCC(=O)O)C(=O)N[C@@H](CO)C(=O)N[C@@H](CCC(=O)O)C(=O)N1CCC[C@H]1C(=O)N[C@@H](CO)C(=O)N[C@@H](CO)C(=O)NCC(=O)N[C@@H](C)C(=O)N1CCC[C@H]1C(=O)N1CCC[C@H]1C(=O)N1CCC[C@H]1C(=O)N[C@@H](CO)C(=O)O)C(C)C [Compound A23] (H-YSHGTFTSDYSKYLDK([γGlu-γGlu-AEEA-C20 diacid])KYAEEFV[Aib]WLESEPSSGAPPPS-OH) | 3.16 pM | > 1000 pM
CC(C)C[C@H](NC(=O)[C@H](Cc1ccc(O)cc1)NC(=O)[C@H](CCCCN)NC(=O)[C@H](CO)NC(=O)[C@H](Cc1ccc(O)cc1)NC(=O)[C@H](CC(=O)O)NC(=O)[C@H](CO)NC(=O)[C@@H](NC(=O)[C@H](Cc1ccccc1)NC(=O)[C@@H](NC(=O)CNC(=O)[C@H](Cc1c[nH]cn1)NC(=O)[C@H](CO)NC(=O)[C@@H](N)Cc1ccc(O)cc1)[C@@H](C)O)[C@@H](C)O)C(=O)N[C@@H](CC(=O)O)C(=O)N[C@@H](CCCCNC(=O)CC[C@H](NC(=O)CC[C@H](NC(=O)COCCOCCNC(=O)CCCCCCCCCCCCCCCCCCC(=O)O)C(=O)O)C(=O)O)C(=O)N[C@@H](CCCCN)C(=O)N[C@@H](Cc1ccc(O)cc1)C(=O)N[C@@H](C)C(=O)N[C@H]1CCC(=O)NCCCC[C@@H](C(=O)N[C@@H](Cc2c[nH]c3ccccc23)C(=O)N[C@@H](CC(C)C)C(=O)N[C@@H](CCC(=O)O)C(=O)N[C@@H](CCC(=O)O)C(=O)N[C@@H](CCC(=O)O)C(=O)N2CCC[C@H]2C(=O)N[C@@H](CO)C(=O)N[C@@H](CO)C(=O)NCC(=O)N[C@@H](C)C(=O)N2CCC[C@H]2C(=O)N2CCC[C@H]2C(=O)N2CCC[C@H]2C(=O)N[C@@H](CO)C(=O)O)NC(=O)[C@H](C(C)C)NC(=O)[C@H](Cc2ccccc2)NC(=O)[C@H](CCCCN)NC1=O [Compound A25] (H-YSHGTFTSDYSKYLDK([γGlu-γGlu-AEEA-C20 diacid])KYAEKFVKWLEEEPSSGAPPPS-OH; lactam 20-24) | 1.26 pM | > 1000 pM
CC(C)C[C@H](NC(=O)[C@H](Cc1ccc(O)cc1)NC(=O)[C@H](CCCCN)NC(=O)[C@H](CO)NC(=O)[C@H](Cc1ccc(O)cc1)NC(=O)[C@H](CC(=O)O)NC(=O)[C@H](CO)NC(=O)[C@@H](NC(=O)[C@H](Cc1ccccc1)NC(=O)[C@@H](NC(=O)CNC(=O)[C@H](Cc1c[nH]cn1)NC(=O)[C@H](CO)NC(=O)[C@@H](N)Cc1ccc(O)cc1)[C@@H](C)O)[C@@H](C)O)C(=O)N[C@@H](CC(=O)O)C(=O)N[C@@H](CCCCNC(=O)CC[C@H](NC(=O)CC[C@H](NC(=O)COCCOCCNC(=O)CCCCCCCCCCCCCCCCCCC(=O)O)C(=O)O)C(=O)O)C(=O)N[C@@H](CCCCN)C(=O)N[C@@H](Cc1ccc(O)cc1)C(=O)N[C@@H](C)C(=O)N[C@H]1CCC(=O)NCCCC[C@@H](C(=O)N[C@@H](Cc2c[nH]c3ccccc23)C(=O)N[C@@H](CC(C)C)C(=O)N[C@@H](CCC(=O)O)C(=O)N[C@@H](CCCCN)C(=O)N[C@@H](CCC(=O)O)C(=O)N2CCC[C@H]2C(=O)N[C@@H](CO)C(=O)N[C@@H](CO)C(=O)NCC(=O)N[C@@H](C)C(=O)N2CCC[C@H]2C(=O)N2CCC[C@H]2C(=O)N2CCC[C@H]2C(=O)N[C@@H](CO)C(=O)O)NC(=O)[C@H](C(C)C)NC(=O)[C@H](Cc2ccccc2)NC(=O)[C@H](CCCCN)NC1=O [Compound A26] (H-YSHGTFTSDYSKYLDK([γGlu-γGlu-AEEA-C20 diacid])KYAEKFVKWLEKEPSSGAPPPS-OH; lactam 20-24; N-terminus assumed) | 7.94 pM | > 1000 pM
CC(C)C[C@H](NC(=O)[C@H](Cc1ccc(O)cc1)NC(=O)[C@H](CCCCN)NC(=O)[C@H](CO)NC(=O)[C@H](Cc1ccc(O)cc1)NC(=O)[C@H](CC(=O)O)NC(=O)[C@H](CO)NC(=O)[C@@H](NC(=O)[C@H](Cc1ccccc1)NC(=O)[C@@H](NC(=O)CNC(=O)[C@H](Cc1c[nH]cn1)NC(=O)[C@H](CO)NC(=O)[C@@H](N)Cc1ccc(O)cc1)[C@@H](C)O)[C@@H](C)O)C(=O)N[C@@H](CC(=O)O)C(=O)N[C@@H](CCCCNC(=O)CC[C@H](NC(=O)CC[C@H](NC(=O)COCCOCCNC(=O)CCCCCCCCCCCCCCCCCCC(=O)O)C(=O)O)C(=O)O)C(=O)N[C@@H](CCCCN)C(=O)N[C@@H](Cc1ccc(O)cc1)C(=O)N[C@@H](C)C(=O)N[C@H]1CCC(=O)NCCCC[C@@H](C(=O)N[C@@H](Cc2c[nH]c3ccccc23)C(=O)N[C@@H](CC(C)C)C(=O)N[C@@H](CCC(=O)O)C(=O)N[C@@H](CC(N)=O)C(=O)N[C@@H](CCC(=O)O)C(=O)N2CCC[C@H]2C(=O)N[C@@H](CO)C(=O)N[C@@H](CO)C(=O)NCC(=O)N[C@@H](C)C(=O)N2CCC[C@H]2C(=O)N2CCC[C@H]2C(=O)N2CCC[C@H]2C(=O)N[C@@H](CO)C(=O)O)NC(=O)[C@H](C(C)C)NC(=O)[C@H](Cc2ccccc2)NC(=O)[C@H](CCCCN)NC1=O [Compound A27] (H-YSHGTFTSDYSKYLDK([γGlu-γGlu-AEEA-C20 diacid])KYAEKFVKWLENEPSSGAPPPS-OH; lactam 20-24; N-terminus assumed) | 1 pM | > 1000 pM
CC(C)C[C@H](NC(=O)[C@H](Cc1ccc(O)cc1)NC(=O)[C@H](CCCCN)NC(=O)[C@H](CO)NC(=O)[C@H](Cc1ccc(O)cc1)NC(=O)[C@H](CC(=O)O)NC(=O)[C@H](CO)NC(=O)[C@@H](NC(=O)[C@H](Cc1ccccc1)NC(=O)[C@@H](NC(=O)CNC(=O)[C@H](Cc1c[nH]cn1)NC(=O)[C@H](CO)NC(=O)[C@@H](N)Cc1ccc(O)cc1)[C@@H](C)O)[C@@H](C)O)C(=O)N[C@@H](CC(=O)O)C(=O)N[C@@H](CCCCNC(=O)CC[C@H](NC(=O)CC[C@H](NC(=O)COCCOCCNC(=O)CCCCCCCCCCCCCCCCCCC(=O)O)C(=O)O)C(=O)O)C(=O)N[C@@H](CCCCN)C(=O)N[C@@H](Cc1ccc(O)cc1)C(=O)N[C@@H](C)C(=O)N[C@H]1CCC(=O)NCCCC[C@@H](C(=O)N[C@@H](Cc2c[nH]c3ccccc23)C(=O)N[C@@H](CC(C)C)C(=O)N[C@@H](CCC(=O)O)C(=O)N[C@@H](CO)C(=O)N[C@@H](CCC(=O)O)C(=O)N2CCC[C@H]2C(=O)N[C@@H](CO)C(=O)N[C@@H](CO)C(=O)NCC(=O)N[C@@H](C)C(=O)N2CCC[C@H]2C(=O)N2CCC[C@H]2C(=O)N2CCC[C@H]2C(=O)N[C@@H](CO)C(=O)O)NC(=O)[C@H](C(C)C)NC(=O)[C@H](Cc2ccccc2)NC(=O)[C@H](CCCCN)NC1=O [Compound A28] (H-YSHGTFTSDYSKYLDK([γGlu-γGlu-AEEA-C20 diacid])KYAEKFVKWLESEPSSGAPPPS-OH; lactam 20-24; N-terminus assumed) | 2 pM | > 1000 pM
CC(C)C[C@H](NC(=O)[C@H](Cc1ccc(O)cc1)NC(=O)[C@H](CCCCN)NC(=O)[C@H](CO)NC(=O)[C@H](Cc1ccc(O)cc1)NC(=O)[C@H](CC(=O)O)NC(=O)[C@H](CO)NC(=O)[C@@H](NC(=O)[C@H](Cc1ccccc1)NC(=O)[C@@H](NC(=O)CNC(=O)[C@H](Cc1c[nH]cn1)NC(=O)[C@H](CO)NC(=O)[C@@H](N)Cc1ccc(O)cc1)[C@@H](C)O)[C@@H](C)O)C(=O)N[C@@H](CC(=O)O)C(=O)N[C@@H](CCCCNC(=O)CC[C@H](NC(=O)CC[C@H](NC(=O)COCCOCCNC(=O)CCCCCCCCCCCCCCCCCCC(=O)O)C(=O)O)C(=O)O)C(=O)N[C@@H](CCCCN)C(=O)N[C@@H](Cc1ccc(O)cc1)C(=O)N[C@@H](C)C(=O)N[C@H]1CCC(=O)NCCCC[C@@H](C(=O)N[C@@H](Cc2c[nH]c3ccccc23)C(=O)N[C@@H](CC(C)C)C(=O)N[C@@H](CCC(=O)O)C(=O)N[C@@H](CC(=O)O)C(=O)N[C@@H](CCC(=O)O)C(=O)N2CCC[C@H]2C(=O)N[C@@H](CO)C(=O)N[C@@H](CO)C(=O)NCC(=O)N[C@@H](CCC(=O)O)C(=O)N2CCC[C@H]2C(=O)N2CCC[C@H]2C(=O)N2CCC[C@H]2C(=O)N[C@@H](CO)C(=O)O)NC(=O)[C@H](C(C)C)NC(=O)[C@H](Cc2ccccc2)NC(=O)[C@H](CCCCN)NC1=O [Compound A31] (H-YSHGTFTSDYSKYLDK([γGlu-γGlu-AEEA-C20 diacid])KYAEKFVKWLEDEPSSGEPPPS-OH; lactam 20-24; N-terminus assumed) | 1.26 pM | > 1000 pM

— patent US20240228572A1 (i2o Therapeutics, Inc., priority 2020, published 2024)
